Results reported in the NIST ThermoML archive (doi:10.1021/acs.jced.7b00704).

Columns and labels:
[1] = Liquid, Ebulliometric method (Recirculating still)
[2] = refractive index (Na D-line) (dimensionless); conditions: Liquid, Standard Abbe refractometry
[3] = refractive index (Na D-line) (dimensionless); xn = mol fraction of the nth substance listed; conditions: 293.15 K, 93 kPa, Liquid, Standard Abbe refractometry

CC(=O)OC(C)C [1-methylethyl ethanoate]
Conditions | vapor or sublimation pressure [kPa]
[1], 358.92 K | 93.13

[2]
Conditions | refractive index
293.15 K, 93 kPa | 1.3774
298.15 K, 101.33 kPa | 1.3748

CC(=O)OC(C)C [1-methylethyl ethanoate] + COC(=O)OC
[3]
Conditions | refractive index
x1 = 0.0423 | 1.3693
x1 = 0.0899 | 1.3699
x1 = 0.183 | 1.371
x1 = 0.2918 | 1.3721
x1 = 0.4235 | 1.3733
x1 = 0.5026 | 1.374
x1 = 0.5726 | 1.3746
x1 = 0.6814 | 1.3754
x1 = 0.7285 | 1.3758
x1 = 0.7616 | 1.3759
x1 = 0.7915 | 1.3761
x1 = 0.8849 | 1.3767
x1 = 0.9449 | 1.3771
x1 = 1 | 1.3774

CC(=O)OCCC(C)C [3-methylbutyl ethanoate]
Conditions | vapor or sublimation pressure [kPa]
[1], 412.31 K | 93.13

[2]
Conditions | refractive index
293.15 K, 93 kPa | 1.4007
298.15 K, 101.33 kPa | 1.39842

CC(=O)OCCC(C)C [3-methylbutyl ethanoate] + COC(=O)OC
[3]
Conditions | refractive index
x1 = 0.0369 | 1.3706
x1 = 0.0721 | 1.3724
x1 = 0.2004 | 1.378
x1 = 0.2231 | 1.3788
x1 = 0.3091 | 1.3821
x1 = 0.4027 | 1.3854
x1 = 0.4943 | 1.3883
x1 = 0.6064 | 1.3915
x1 = 0.7185 | 1.3945
x1 = 0.8312 | 1.3972
x1 = 0.9243 | 1.3992
x1 = 1 | 1.4007

CCCCOC(C)=O [butyl ethanoate]
Conditions | vapor or sublimation pressure [kPa]
[1], 396.21 K | 93.13

[2]
Conditions | refractive index
293.15 K, 93 kPa | 1.3943
298.15 K, 101.33 kPa | 1.39175

CCCCOC(C)=O [butyl ethanoate] + COC(=O)OC
[3]
Conditions | refractive index
x1 = 0.0941 | 1.3721
x1 = 0.1143 | 1.3728
x1 = 0.1628 | 1.3743
x1 = 0.2495 | 1.377
x1 = 0.3203 | 1.379
x1 = 0.4375 | 1.3821
x1 = 0.5357 | 1.3846
x1 = 0.6438 | 1.3871
x1 = 0.7325 | 1.389
x1 = 0.7418 | 1.3893
x1 = 0.8819 | 1.3921
x1 = 0.9073 | 1.3925
x1 = 1 | 1.3943

COC(=O)OC [dimethyl carbonate] + CC(=O)OC(C)C
Conditions | refractive index
[3], x2 = 0 | 1.3688

COC(=O)OC [dimethyl carbonate] + CC(=O)OCCC(C)C
Conditions | refractive index
[3], x2 = 0 | 1.3688

COC(=O)OC [dimethyl carbonate] + CCCCOC(C)=O
Conditions | refractive index
[3], x2 = 0 | 1.3688

COC(=O)OC [dimethyl carbonate] + CCCOC(C)=O
Conditions | refractive index
[3], x2 = 0 | 1.3688

COC(=O)OC [dimethyl carbonate] + CCOC(C)=O
[3]
Conditions | refractive index
x2 = 0 | 1.3688
x2 = 0.0861 | 1.3693
x2 = 0.1154 | 1.3694
x2 = 0.2095 | 1.3698
x2 = 0.3017 | 1.3702
x2 = 0.3685 | 1.3704
x2 = 0.3952 | 1.3705
x2 = 0.4303 | 1.3707
x2 = 0.5094 | 1.371
x2 = 0.5642 | 1.3712
x2 = 0.6047 | 1.3713
x2 = 0.6964 | 1.3716
x2 = 0.8026 | 1.3719
x2 = 0.8912 | 1.3722
x2 = 0.9375 | 1.3723

COC(=O)OC [dimethyl carbonate] + COC(C)=O
Conditions | refractive index
[3], x2 = 0 | 1.3688

CCOC(C)=O [ethyl acetate] + COC(=O)OC
Conditions | refractive index
[3], x1 = 1 | 1.3724

COC(C)=O [methyl ethanoate] + COC(=O)OC
[3]
Conditions | refractive index
x1 = 0.0985 | 1.3682
x1 = 0.1427 | 1.3679
x1 = 0.2469 | 1.3673
x1 = 0.3243 | 1.3668
x1 = 0.3794 | 1.3665
x1 = 0.445 | 1.366
x1 = 0.5283 | 1.3654
x1 = 0.6548 | 1.3645
x1 = 0.7403 | 1.3639
x1 = 0.7976 | 1.3634
x1 = 0.8939 | 1.3625
x1 = 0.9548 | 1.362
x1 = 1 | 1.3615

CCCOC(C)=O [propyl ethanoate] + COC(=O)OC
[3]
Conditions | refractive index
x1 = 0.0846 | 1.3704
x1 = 0.1341 | 1.3714
x1 = 0.1705 | 1.372
x1 = 0.223 | 1.3731
x1 = 0.2896 | 1.3741
x1 = 0.3877 | 1.3757
x1 = 0.4374 | 1.3765
x1 = 0.4989 | 1.3775
x1 = 0.562 | 1.3784
x1 = 0.669 | 1.38
x1 = 0.7756 | 1.3815
x1 = 0.891 | 1.383
x1 = 0.9528 | 1.3838
x1 = 1 | 1.3843
